Active and inactive are the calls of the source. The rule behind the calls is not given here.
Test system: CCRIS mutagenicity, Ames/micronucleus/aberration tests
Experiment: CCRIS mutagenicity studies
[1] = Test System: AMES SALMONELLA TYPHIMURIUM, Strain/Indicator: TA98, Metabolic Activation: NONE, Method: STANDARD PLATE
[2] = Test System: AMES SALMONELLA TYPHIMURIUM, Strain/Indicator: TA100, Metabolic Activation: NONE, Method: STANDARD PLATE

CC1=C(C(=O)Nc2ccccc2)SCCO1
mutagenic call (Test System: AMES SALMONELLA TYPHIMURIUM, Strain/Indicator: TA97A, Metabolic Activation: NONE, Method: STANDARD PLATE): inactive; negative | mutagenic call (Test System: AMES SALMONELLA TYPHIMURIUM, Strain/Indicator: TA97A, Metabolic Activation: PLANT, HOMOGENATE, S-14, Method: STANDARD PLATE): inactive; negative | mutagenic call (Test System: AMES SALMONELLA TYPHIMURIUM, Strain/Indicator: TA97A, Metabolic Activation: S-9, Method: STANDARD PLATE): inactive; negative | mutagenic call [1]: inactive; negative | mutagenic call (Test System: AMES SALMONELLA TYPHIMURIUM, Strain/Indicator: TA98, Metabolic Activation: PLANT, HOMOGENATE, S-14, Method: STANDARD PLATE): inactive; negative | mutagenic call (Test System: AMES SALMONELLA TYPHIMURIUM, Strain/Indicator: TA98, Metabolic Activation: S-9, Method: STANDARD PLATE): inactive; negative | mutagenic call [2]: inactive; negative | mutagenic call (Test System: AMES SALMONELLA TYPHIMURIUM, Strain/Indicator: TA100, Metabolic Activation: PLANT, HOMOGENATE, S-14, Method: STANDARD PLATE): inactive; negative | mutagenic call (Test System: AMES SALMONELLA TYPHIMURIUM, Strain/Indicator: TA100, Metabolic Activation: S-9, Method: STANDARD PLATE): inactive; negative | mutagenic call (Test System: AMES SALMONELLA TYPHIMURIUM, Strain/Indicator: TA1535, Metabolic Activation: NONE, Method: STANDARD PLATE): inactive; negative | mutagenic call (Test System: AMES SALMONELLA TYPHIMURIUM, Strain/Indicator: TA1535, Metabolic Activation: PLANT, HOMOGENATE, S-14, Method: STANDARD PLATE): inactive; negative | mutagenic call (Test System: AMES SALMONELLA TYPHIMURIUM, Strain/Indicator: TA1535, Metabolic Activation: S-9, Method: STANDARD PLATE): inactive; negative

NC(=NCCCCCCN=C(N)/N=C(\N)Nc1ccc(Cl)cc1)/N=C(\N)Nc1ccc(Cl)cc1
mutagenic call (End Point: IN VITRO CHROMOSOMAL ABERRATIONS, Test System: SYRIAN HAMSTER EMBRYO (SHE) CELLS, Metabolic Activation: NONE): inactive; negative; toxic at 10 um | mutagenic call (End Point: IN VITRO CHROMOSOMAL ABERRATIONS, Test System: SYRIAN HAMSTER EMBRYO (SHE) CELLS, Metabolic Activation: RAT, LIVER, S-9): inactive; negative

C[C@@H](O)[C@H](N)C(=O)O
mutagenic call (Test System: AMES SALMONELLA TYPHIMURIUM, Strain/Indicator: TA98, Metabolic Activation: RAT LIVER S-9, CHLOROPHENE, Method: STANDARD PLATE (COMPOUND HEATED AT 250 DEGREES CELSIUS FOR 20 MIN)): active; positive

Cc1nc2c(c3[nH]c4ccccc4c13)C(=O)C=CC2=O
mutagenic call (Test System: AMES SALMONELLA TYPHIMURIUM, Strain/Indicator: TA97, Metabolic Activation: NONE, Method: STANDARD PLATE): inactive; negative | mutagenic call (Test System: AMES SALMONELLA TYPHIMURIUM, Strain/Indicator: TA97, Metabolic Activation: RAT, LIVER, S-9, AROCLOR 1254, Method: STANDARD PLATE): active; positive | mutagenic call [1]: active; positive | mutagenic call (Test System: AMES SALMONELLA TYPHIMURIUM, Strain/Indicator: TA98, Metabolic Activation: RAT, LIVER, S-9, AROCLOR 1254, Method: STANDARD PLATE): active; positive | mutagenic call [2]: inactive; negative | mutagenic call (Test System: AMES SALMONELLA TYPHIMURIUM, Strain/Indicator: TA100, Metabolic Activation: RAT, LIVER, S-9, AROCLOR 1254, Method: STANDARD PLATE): inactive; negative | mutagenic call (Test System: AMES SALMONELLA TYPHIMURIUM, Strain/Indicator: TA102, Metabolic Activation: NONE, Method: STANDARD PLATE): inactive; negative | mutagenic call (Test System: AMES SALMONELLA TYPHIMURIUM, Strain/Indicator: TA102, Metabolic Activation: RAT, LIVER, S-9, AROCLOR 1254, Method: STANDARD PLATE): inactive; negative

CC(=O)Nc1cc(N(CCOC(C)=O)CCOC(C)=O)ccc1N=Nc1ccc([N+](=O)[O-])cc1Cl
mutagenic call (End Point: IN VITRO CHROMOSOMAL ABERRATIONS, Test System: CHL CELLS, Metabolic Activation: NONE): inactive; negative | mutagenic call (End Point: IN VITRO CHROMOSOMAL ABERRATIONS, Test System: CHL CELLS, Metabolic Activation: RAT, LIVER, S-9, SODIUM PHENOBARBITAL AND 5,6-BENZOFLAVONE): inactive; negative

O=C(Nc1ccc([N+](=O)[O-])cc1)c1csc([N+](=O)[O-])c1
mutagenic call [1]: active; positive | mutagenic call [2]: active; positive

CCCCCCCCCCCCC/C([O-])=N/[N+](C)(C)CC(C)O (stereo not drawn)
mutagenic call (Test System: AMES SALMONELLA TYPHIMURIUM, Strain/Indicator: TA97, Metabolic Activation: HAMSTER, LIVER, S-9, AROCLOR 1254 (10 OR 30%), Method: PREINCUBATION): inactive; negative | mutagenic call (Test System: AMES SALMONELLA TYPHIMURIUM, Strain/Indicator: TA97, Metabolic Activation: NONE, Method: PREINCUBATION): inactive; negative | mutagenic call (Test System: AMES SALMONELLA TYPHIMURIUM, Strain/Indicator: TA97, Metabolic Activation: RAT, LIVER, S-9, AROCLOR 1254 (10 OR 30%), Method: PREINCUBATION): inactive; negative | mutagenic call (Test System: AMES SALMONELLA TYPHIMURIUM, Strain/Indicator: TA98, Metabolic Activation: HAMSTER, LIVER, S-9, AROCLOR 1254 (10%), Method: PREINCUBATION): inactive; negative | mutagenic call (Test System: AMES SALMONELLA TYPHIMURIUM, Strain/Indicator: TA98, Metabolic Activation: HAMSTER, LIVER, S-9, AROCLOR 1254 (30%), Method: PREINCUBATION): inactive; negative | mutagenic call (Test System: AMES SALMONELLA TYPHIMURIUM, Strain/Indicator: TA98, Metabolic Activation: NONE, Method: PREINCUBATION): inactive; negative | mutagenic call (Test System: AMES SALMONELLA TYPHIMURIUM, Strain/Indicator: TA98, Metabolic Activation: RAT, LIVER, S-9, AROCLOR 1254 (10%), Method: PREINCUBATION): inactive; negative | mutagenic call (Test System: AMES SALMONELLA TYPHIMURIUM, Strain/Indicator: TA98, Metabolic Activation: RAT, LIVER, S-9, AROCLOR 1254 (30%), Method: PREINCUBATION): inactive; negative | mutagenic call (Test System: AMES SALMONELLA TYPHIMURIUM, Strain/Indicator: TA100, Metabolic Activation: HAMSTER, LIVER, AROCLOR 1254 (10%), Method: PREINCUBATION): inactive; negative | mutagenic call (Test System: AMES SALMONELLA TYPHIMURIUM, Strain/Indicator: TA100, Metabolic Activation: HAMSTER, LIVER, S-9, AROCLOR 1254 (30%), Method: PREINCUBATION): inactive; negative | mutagenic call (Test System: AMES SALMONELLA TYPHIMURIUM, Strain/Indicator: TA100, Metabolic Activation: NONE, Method: PREINCUBATION): inactive; negative | mutagenic call (Test System: AMES SALMONELLA TYPHIMURIUM, Strain/Indicator: TA100, Metabolic Activation: RAT, LIVER, S-9, AROCLOR 1254 (10%), Method: PREINCUBATION): inactive; negative | mutagenic call (Test System: AMES SALMONELLA TYPHIMURIUM, Strain/Indicator: TA100, Metabolic Activation: RAT, LIVER, S-9, AROCLOR 1254 (30%), Method: PREINCUBATION): inactive; negative | mutagenic call (Test System: AMES SALMONELLA TYPHIMURIUM, Strain/Indicator: TA1535, Metabolic Activation: HAMSTER, LIVER, S-9, AROCLOR 1254 (10 OR 30%), Method: PREINCUBATION): inactive; negative | mutagenic call (Test System: AMES SALMONELLA TYPHIMURIUM, Strain/Indicator: TA1535, Metabolic Activation: NONE, Method: PREINCUBATION): inactive; negative | mutagenic call (Test System: AMES SALMONELLA TYPHIMURIUM, Strain/Indicator: TA1535, Metabolic Activation: RAT, LIVER, S-9, AROCLOR 1254 (10 OR 30%), Method: PREINCUBATION): inactive; negative | mutagenic call (Test System: AMES SALMONELLA TYPHIMURIUM, Strain/Indicator: TA1537, Metabolic Activation: HAMSTER, LIVER, S-9, AROCLOR 1254 (10 OR 30%), Method: PREINCUBATION): inactive; negative | mutagenic call (Test System: AMES SALMONELLA TYPHIMURIUM, Strain/Indicator: TA1537, Metabolic Activation: NONE, Method: PREINCUBATION): inactive; negative | mutagenic call (Test System: AMES SALMONELLA TYPHIMURIUM, Strain/Indicator: TA1537, Metabolic Activation: RAT, LIVER, S-9, AROCLOR 1254 (10 OR 30%), Method: PREINCUBATION): inactive; negative

O=C1c2c(ccc3ccccc23)-c2ccc3ccccc3c21
mutagenic call [1]: inactive; negative | mutagenic call [2]: inactive; negative
